{
  "source": "patent US4425347A",
  "about": "“Perfluorobicyclo compound emulsion preparation” (priority 1982, dated 1984)",
  "assay": "Distribution of Perfluoro-compound in Organs (gas chromatography)",
  "assay_type": "in vivo, Wister-strain male rats",
  "settings": "4 g/kg, tail vein; for Residual Rate of perfluorobicyclo compound: 3 Months after administration",
  "method": "Using Wister-strain male rats weighing 120-130 g, the emulsion prepared in Example 1 was administered into the tail vein [at 4 g/kg as perfluoro-4-methyloctahydroquinolidine], and for a period of 3 months after the administration, the content of said compound in the liver, spleen and fat tissues due to uptake were measured by means of gas chromatography.",
  "data": [
    {"smiles": "FC(F)(F)C1(F)N2C(F)(F)C(F)(F)C(F)(F)C(F)(F)C2(F)C(F)(F)C(F)(F)C1(F)F", "note": "(centres unmarked) [perfluoro-4-methyloctahydroquinolidine]", "values": [
      {"measurement": "adverse influence on the liver or spleen organ", "setting": "3 months", "value": "no evidence of adverse influence on the liver or spleen organ"},
      {"measurement": "uptake by the reticulo-endothelial organ and disappearance", "setting": "rat", "value": "taken up in greater amounts by the reticulo-endothelial organ shortly after the administration, but soon disappeared rapidly"},
      {"measurement": "Residual Rate of perfluorobicyclo compound", "setting": "Liver", "value": 0.30, "unit": "%"},
      {"measurement": "Residual Rate of perfluorobicyclo compound", "setting": "Spleen", "value": 0.09, "unit": "%"},
      {"measurement": "half-life", "setting": "in vivo, iv, 4000 mg/kg, rat", "value": 176, "unit": "h"}
    ]}
  ]
}
